Experimental data reported in patent US5830863A, “Neurokinin A antagonists” (priority 1996, dated 1998).
Residues, ends and D or L forms follow the SMILES beside them.

Legend:
[1] = molecular target: T1, neurokinin A (NKA) receptor (NK-2) (Mesocricetus auratus, UniProt P51144); assay: displacement of I125 labeled NKA from hamster urinary bladder membranes; type: binding
T1 construct: displace I125 labeled NKA from hamster urinary bladder; from tissue; host or cells: hamster urinary bladder (membranes in A1, chopped tissue in A4)
T1 sequence (P51144 1-384): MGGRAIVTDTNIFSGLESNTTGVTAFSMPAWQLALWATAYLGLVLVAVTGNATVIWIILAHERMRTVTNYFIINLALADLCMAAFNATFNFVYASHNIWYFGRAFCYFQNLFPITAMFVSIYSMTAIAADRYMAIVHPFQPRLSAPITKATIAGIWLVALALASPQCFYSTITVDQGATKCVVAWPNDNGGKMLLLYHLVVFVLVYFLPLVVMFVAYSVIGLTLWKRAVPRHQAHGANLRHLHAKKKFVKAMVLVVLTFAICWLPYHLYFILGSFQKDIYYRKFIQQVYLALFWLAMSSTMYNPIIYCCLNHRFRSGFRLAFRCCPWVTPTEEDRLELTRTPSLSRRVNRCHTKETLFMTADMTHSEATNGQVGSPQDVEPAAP
Text: The abscissa (x-axis) logarithmically indicates the concentration in nanomoles of agonist of antagonist of the neurokinin A (NKA) receptor. The ordinate (Y-axis) indicates the observed specific binding for each tested agonist or antagonist measured as a percentage of maximum specific binding.
Agonists tested were NKA and fragments of NKA consisting of the third to tenth (NKA(3-10)) amino acids and the fourth to tenth (NKA(4-10)) amino acids. Values are MEAN±S.E.M. of 6-12 experiments. IC50 values estimated graphically from 50% inhibition point.
Urinary bladders from several hamsters were pooled, minced, and homogenized in 50 mM TRIS-HCl (pH 7.4) containing 120 mM NaCl and 5 mM KCl at 4° C. and centrifuged at 48,000×g for 15 minutes. The pellet was resuspended for 30 minutes in 50 mM TRIS-HCl (pH 7.4) containing 10 mM EDTA and 300 mM KCl at 4° C. The suspension was centrifuged as above and the pellet was washed two times in plain 50 mM TRIS-HCl (pH 7.4) and centrifuged similarly. The tissue was then resuspended in incubation buffer and an aliquot (approximately 3-5 mg tissue) was added to each assay tube to commence the assay. The assay tubes contained incubation buffer consisting of 50 mM TRIS-HCl (pH 7.4), 0.02% BSA, 40 μg/ml bacitracin, 4 μg/ml chymostatin, 4 μg/ml leupeptin, 2 mM MnCl2, 0.1 nM ^125 iodohistidyl^1 -neurokinin A (Amersham Corp.), and concentrations of the title compounds or standards ranging from 0.03 nM to 100 μM. The assay was allowed to proceed to equilibrium for 120 min at room temperature. After this time, the contents of each tube was rapidly filtered over Whatman GF/B filters presoaked in 0.5% BSA and the filters were rapidly washed two times with ice-cold plain 50 mM TRIS-HCl (pH 7.4). Filter-bound radioactivity was quantitated in a gamma counter. Specific binding (maximum) was defined as the difference between binding in the presence and absence of 1 μM unlabeled neurokinin A. Competition of iodinated neurokinin A binding by test compounds or standards was expressed as a percentage of this maximum competition.
Values given indicate the concentration in nanomoles of antagonist to reach the IC50 of the neurokinin A (NKA) receptor. SKLKB82#3 represents a cloned NK-2 receptor cell line; the sample is prepared from the scraped cell pellet for assay as earlier described for the hamster urinary bladder preparations. NK-1 represents a substance P receptor preparation from rat salivary gland; receptors are prepared as earlier described for the hamster urinary bladder preparations. Blank spaces indicate compound has not been tested in that particular assay.

NKA receptor = molecular target: T2, NKA receptor (Mesocricetus auratus, UniProt P51144); assay: phosphatidylinositol (PI) turnover in hamster urinary bladder; type: cell-based; conditions: test compound alone; ID#3 up to 100 μM
T2 construct: displace I125 labeled NKA from hamster urinary bladder; from tissue; host or cells: hamster urinary bladder (membranes in A1, chopped tissue in A4)
T2 sequence (P51144 1-384): T1 sequence (P51144 1-384)
Protocol: The abscissa (x-axis) logarithmically indicates the concentration in nanomolar (nM) of agonist or antagonist of the NKA receptor. The ordinate (y-axis) indicates the observed PI turnover as a percentage of control. […] The ordinate (y-axis) indicates the observed PI turnover as a percentage of control. […] Urinary bladders from several hamsters were pooled and chopped at 350 μm with a tissue chopper. The chopped tissue was then incubated in 37° C. Krebs-Hepes buffer with fresh buffer changes every 15 minutes for 30 minutes. The tissue was then incubated in this buffer containing 100-200 μCi of ^3 H-inositol at 37° C. […] Test compound was also evaluated alone at the indicated concentrations to test for agonist activity. […] 50 μl of the bottom phase (chloroform) was withdrawn from each tube and placed in a counting vial, dried, and counted in scintillation fluid. The material on the columns was washed in order with: 1) 10 ml of water 2) 5 ml of 5 mM disodium tetraborate/60 mM sodium formate 3) 10 ml of 1M ammonium formate in 0.1M formic acid The final (third) wash was collected and one ml was mixed with 6 ml of ACS scintillant and counted. The ratio of these counts (total inositol phosphates) to the corresponding organic phase counts was then calculated for each sample. […]

SMILES: CC(C)C[C@@H](CN[C@@H](CC(C)C)C(N)=O)NC(=O)CNC(=O)[C@@H](NC(=O)[C@H](Cc1ccccc1)NC(=O)[C@H](CO)NC(=O)[C@@H](N)CC(=O)O)C(C)C [MDL 28,564, H-Asp-Ser-Phe-Val-Gly-Leu.PSI.(CH2 NH)Leu-NH2] (HELM PEPTIDE1{D.S.F.V.G.[CC(C)C[C@@H](CN[C@@H](CC(C)C)C(N)=O)N[*:1]]}$$$$V2.0)
- IC50 [1]: 157 ± 17 nM
- partial agonist activity (PI turnover) (NKA receptor): 12%

SMILES: CC(C)C[C@@H](CN(C)[C@@H](CC(C)C)C(N)=O)NC(=O)CNC(=O)[C@@H](NC(=O)[C@H](Cc1ccccc1)NC(=O)[C@H](CO)NC(=O)[C@@H](N)CC(=O)O)C(C)C [MDL 29,916, H-Asp-Ser-Phe-Val-Gly-Leu.PSI.(CH2 NCH3)Leu-NH2] (HELM PEPTIDE1{D.S.F.V.G.[CC(C)C[C@@H](CN(C)[C@@H](CC(C)C)C(N)=O)N[*:1]]}$$$$V2.0)
- IC50 [1]: 210 ± 15 nM
- partial agonist activity (PI turnover) (NKA receptor): 5%
